Measurements taken from ChEMBL document CHEMBL1201862, “PubChem BioAssay data set” (2004).
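A five-concentration, 48-hour dose response in 96-well plates underlies each endpoint, interpolated linearly between surrounding concentrations. Abbreviation: GI50, concentration required for 50% inhibition of growth.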 Activity calls are given as the source filed them. Rule as the data show it: active = GI50 up to about 1.1 µM and inactive = higher. Bridge positions count the residues as written; N and C are the ends. Square brackets hold non-standard residues; d marks the D form. Peptide text beside a SMILES is read from it. * marks the point of attachment. ξ: configuration not given here. NMeN = CN[C@@H](CC(N)=O)C(=O)O; NMeV = CN[C@H](C(=O)O)C(C)C; ξNMeV = CNC(C(=O)O)C(C)C; Cbz = O=C(OCc1ccccc1)*; Dab = NCC[CH](N)C(=O)O; Boc = CC(C)(C)OC(=O)*; ξNMeA = CNC(C)C(=O)O; Bn = c1ccc(C*)cc1

How the values were obtained:
Assay in all cases: growth of human tumour cells (NCI), 48 h
[1] = system: SF-268
[2] = system: HCC 2998
[3] = system: HOP-62
[4] = system: 786-0
[5] = system: MDA-N
[6] = system: OVCAR-3
[7] = system: RPMI-8226
[8] = system: UACC-62
[9] = system: ACHN
[10] = system: UACC-257
[11] = system: K562
[12] = system: SR
[13] = system: COLO 205
[14] = system: NCI-H23
[15] = system: SK-OV-3
[16] = system: SF-295
[17] = system: MDA-MB-231
[18] = system: HOP-92
[19] = system: SK-MEL-28
[20] = system: HT-29

| Compound | GI50 [1] | GI50 [2] | GI50 [3] | GI50 [4] | GI50 [5] | GI50 [6] | GI50 [7] | GI50 [8] | GI50 [9] | GI50 [10] | GI50 [11] | GI50 [12] | GI50 [13] | GI50 [14] | GI50 [15] | GI50 [16] | GI50 [17] | GI50 [18] | GI50 [19] | GI50 [20] |
| --- | --- | --- | --- | --- | --- | --- | --- | --- | --- | --- | --- | --- | --- | --- | --- | --- | --- | --- | --- | --- |
| OCCc1ccsc1-c1sc(-c2cc(CCO)c(-c3sc(-c4cc(CCO)c(-c5sccc5CCO)s4)cc3CCO)s2)cc1CCO | 0.881 µM (active) | 1.47 µM (inactive) | 1.38 µM (inactive) | 0.776 µM (active) | 1.24 µM (inactive) | 1.38 µM (inactive) | 0.344 µM (active) | 1.56 µM (inactive) | 1.47 µM (inactive) | 1.13 µM (inactive) | 1.14 µM (inactive) | 0.684 µM (active) | 1.54 µM (inactive) | 0.853 µM (active) | 1.64 µM (inactive) | 1.29 µM (inactive) | 2.83 µM (inactive) | 1.14 µM (inactive) | 1.55 µM (inactive) | 1.77 µM (inactive) |
| CCOP(=O)(OCC)/C(C#N)=C/c1ccccn1 | > 100 µM (inactive) | > 100 µM (inactive) | > 100 µM (inactive) | > 100 µM (inactive) | > 100 µM (inactive) | > 100 µM (inactive) | > 100 µM (inactive) | > 100 µM (inactive) | > 100 µM (inactive) | > 100 µM (inactive) | > 100 µM (inactive) | > 100 µM (inactive) | > 100 µM (inactive) | > 100 µM (inactive) | > 100 µM (inactive) | > 100 µM (inactive) | > 100 µM (inactive) | > 100 µM (inactive) | > 100 µM (inactive) | > 100 µM (inactive) |
| COC1=CC(=O)C(C2(OC(C)C)OC(=O)C(Cl)=C2Cl)=CC1=O (stereo not given) | > 100 µM (inactive) | > 100 µM (inactive) | > 100 µM (inactive) | 28.9 µM (inactive) | 49.1 µM (inactive) | > 100 µM (inactive) | > 100 µM (inactive) | > 100 µM (inactive) | 51.4 µM (inactive) | > 100 µM (inactive) | < 0.01 µM (active) | 0.0115 µM (active) | > 100 µM (inactive) | > 100 µM (inactive) | > 100 µM (inactive) | > 100 µM (inactive) | > 100 µM (inactive) | > 100 µM (inactive) | > 100 µM (inactive) | > 100 µM (inactive) |
| C=C(CCCCCCCCC)CC(=O)SCCNC(=O)CCNC(=O)C(O)C(C)(C)COP(=O)(O)OP(=O)(O)OCC1OC(n2cnc3c(N)ncnc32)C(O)C1OP(=O)(O)O (stereo not given) | 8.73 µM (inactive) | 52.8 µM (inactive) | 40.9 µM (inactive) | 69.5 µM (inactive) | 32.1 µM (inactive) | 77.8 µM (inactive) | 23.8 µM (inactive) | 21.1 µM (inactive) | > 100 µM (inactive) | 48.1 µM (inactive) | > 31.6 µM (inactive) | 36.4 µM (inactive) | > 100 µM (inactive) | > 100 µM (inactive) | > 100 µM (inactive) | 57.4 µM (inactive) | > 77.8 µM (inactive) | 75.5 µM (inactive) | 10.4 µM (inactive) | 68.2 µM (inactive) |
| COC(=O)C(C)N(C)C(=O)[C@H](CC(N)=O)N(C)C(=O)[C@@H]1CCCN1C(=O)[C@H](C(C)C)N(C)C(=O)C(C(C)C)N(C)C(=O)[C@@H](NC(=O)OC(C)(C)C)C(C)C (stereo not given in full) (Boc-V[ξNMeV][NMeV]P[NMeN][ξNMeA]-OMe) | > 100 µM (inactive) | > 50 µM (inactive) | > 50 µM (inactive) | > 50 µM (inactive) | > 50 µM (inactive) | > 50 µM (inactive) | > 50 µM (inactive) | > 50 µM (inactive) | > 50 µM (inactive) | > 50 µM (inactive) | 43.4 µM (inactive) | > 100 µM (inactive) | > 50 µM (inactive) | > 50 µM (inactive) | > 50 µM (inactive) | > 50 µM (inactive) | > 50 µM (inactive) | > 50 µM (inactive) | > 50 µM (inactive) | > 50 µM (inactive) |
| CC(C)CC1NC(=O)C(Cc2ccccc2)NC(=O)C(Cc2ccccc2)NC(=O)C(NC(=O)C(Cc2ccc(OCc3ccccc3)cc2)NC(=O)OCc2ccccc2)CCNC1=O (stereo not given) (Cbz-Y(Bn)[Dab]FFL; lactam 2-C; configuration not given here) | > 100 µM (inactive) | > 100 µM (inactive) | > 100 µM (inactive) | 41.1 µM (inactive) | 36.1 µM (inactive) | > 100 µM (inactive) | > 100 µM (inactive) | 8.47 µM (inactive) | > 100 µM (inactive) | 32.1 µM (inactive) | > 100 µM (inactive) | 63.1 µM (inactive) | > 100 µM (inactive) | 87.1 µM (inactive) | > 100 µM (inactive) | > 100 µM (inactive) | 16.4 µM (inactive) | 40.2 µM (inactive) | > 100 µM (inactive) | > 100 µM (inactive) |
| COc1cc2c(c(O)c1OC)-c1c(cc(OC)c(OC)c1OC)CC(C)C(C)C2 (stereo not given) [GOMISIN K3] | 78 µM (inactive) | 42.3 µM (inactive) | > 100 µM (inactive) | 37.7 µM (inactive) | 73.3 µM (inactive) | 47.1 µM (inactive) | 39.4 µM (inactive) | 43.1 µM (inactive) | 39.1 µM (inactive) | 25.6 µM (inactive) | 38.8 µM (inactive) | 31.3 µM (inactive) | 32 µM (inactive) | 49 µM (inactive) | 82.4 µM (inactive) | 33.9 µM (inactive) | 37.8 µM (inactive) | 36.7 µM (inactive) | 67.1 µM (inactive) | 40.6 µM (inactive) |
